The text below walks through data of article PMC12281142, “A potent phenylalkylamine disrupts mycobacterial membrane bioenergetics and augments bactericidal activity of bedaquiline” (iScience, 2025).

≈ marks a conversion by molar mass, not a printed value. Read-outs that look alike come from different tables or passages of the source.

This assay deals with M. bovis BCG. Nature of the assay: microbe, parasite or virus in culture. Type of assay: cell-based, Mycobacterium bovis BCG.

For `COc1ccc(CCN(C)CCCC(C#N)(c2ccc(OC)c(OC)c2)C2CCCCCCC2)cc1OC` (stereo not shown) [PhA4], the MIC50 was 23 µM (≈ 12 µg/mL), the MIC90 came out at 44 µM (≈ 23 µg/mL) and the “MIC90 (Table S1)” value turned out to be 44 µM (≈ 23 µg/mL).

In the case of `COc1ccc(CCN(C)CCCC(C#N)(Cc2ccc(Br)cc2)c2ccc(OC)c(OC)c2)cc1OC` (stereo not shown) [PhA5], the MIC50 came to 17 µM (≈ 9.89 µg/mL), the MIC90 is 43 µM (≈ 25 µg/mL) and the “MIC90 (Table S1)” value is recorded as 43 µM (≈ 25 µg/mL).

Regarding `COc1ccc(CCN(C)CCCC(C#N)(Cc2cccc(Cl)c2)c2ccc(OC)c(OC)c2)cc1OC` (stereo not shown) [PhA6], the MIC50 was found to be 17 µM (≈ 9.13 µg/mL), the MIC90 is 45 µM (≈ 24.2 µg/mL) and the “MIC90 (Table S1)” value turned out to be 45 µM (≈ 24.2 µg/mL).

Take `COc1ccc(CCN(C)CCCC(C#N)(c2ccc(Cl)c(Cl)c2)C(C)C)cc1OC` (stereo not shown) [PhA7]: the MIC50 is 27 µM (≈ 12.5 µg/mL), the MIC90 amounted to 47 µM (≈ 21.8 µg/mL) and the “MIC90 (Table S1)” value is given as 47 µM (≈ 21.8 µg/mL).

For the molecule `COc1ccc(C(C#N)(CCCN(C)CCc2ccc(Cl)c(Cl)c2)C(C)C)cc1OC` (stereo not shown) [PhA8], the MIC50 was found to be 26 µM (≈ 12 µg/mL), the MIC90 turned out to be 45 µM (≈ 20.9 µg/mL) and the “MIC90 (Table S1)” value is 45 µM (≈ 20.9 µg/mL).

Regarding `COc1ccc(CCN(C)CCCCCCCCCCCCC(C#N)(c2ccc(OC)c(OC)c2)C(C)C)cc1OC` (stereo not shown) [PhA10], the MIC50 stood at 18 µM (≈ 10.5 µg/mL), the MIC90 is 32 µM (≈ 18.6 µg/mL) and the “MIC90 (Table S1)” value came to 32 µM (≈ 18.6 µg/mL).

For `COc1ccc(CCN(C)CCCC(C#N)(c2ccc(Cl)cc2)C2CCCCC2)cc1OC` (stereo not shown) [PhA14], the MIC50 worked out at 19 µM (≈ 8.91 µg/mL), the MIC90 came to 35 µM (≈ 16.4 µg/mL) and the “MIC90 (Table S1)” value is 35 µM (≈ 16.4 µg/mL).

For `COc1ccc(CCN(C)CCCC(C#N)(CC2CCCCC2)c2ccc(Cl)cc2)cc1OC` (stereo not shown) [PhA15], the MIC50 was 21 µM (≈ 10.1 µg/mL), the MIC90 came to 37 µM (≈ 17.9 µg/mL) and the “MIC90 (Table S1)” value is 37 µM (≈ 17.9 µg/mL).

`COc1ccc(C(C#N)(CC=C(C)CCC=C(C)C)CCCN2CCN(C(c3ccccc3)c3ccccc3)CC2)cc1OC` (stereo not shown) [PhA16]: the MIC50 stood at 29 µM (≈ 17.6 µg/mL), the MIC90 turned out to be 46 µM (≈ 27.9 µg/mL) and the “MIC90 (Table S1)” value was determined as 46 µM (≈ 27.9 µg/mL).

For `COc1ccc(C(C#N)(CCCn2c(C)nc3ccccc32)C(C)C)cc1OC` (stereo not shown) [PhA17], the “MIC90 (Table S1)” value is on record as more than 250 µM.

Regarding `COc1ccc(C(C#N)(CCCn2c(N)nc3ccccc32)C(C)C)cc1OC` (stereo not shown) [PhA18], the “MIC90 (Table S1)” value came out at 155 µM (≈ 60.8 µg/mL).

As for `COc1ccc(C(C#N)(CCCN2CCN(c3ccccc3Cl)CC2)C(C)C)cc1OC` (stereo not shown) [PhA19], the “MIC90 (Table S1)” value came out at 73 µM (≈ 33.3 µg/mL).

As to `COc1ccc(C(C#N)(CCCN2CCN(c3ccccc3OC)CC2)C(C)C)cc1OC` (stereo not shown) [PhA20], the “MIC90 (Table S1)” value is 163 µM (≈ 73.6 µg/mL).

On to `COc1ccc(C(C#N)(CCCN2CCN(c3cccc(O)c3)CC2)C(C)C)cc1OC` (stereo not shown) [PhA21], for which the “MIC90 (Table S1)” value was more than 250 µM.

For `COc1ccc(CCN(C)CCCC(C#N)(c2cc(OC)c(OC)c(OC)c2)C(C)C)cc1OC` (stereo not shown) [PhA52, gallopamil, reference compound], the “MIC90 (Table S1)” value (M. bovis BCG, broth dilution) is given as more than 250 µM.

In the case of `COc1cccc(CCN(C)CCCC(C#N)(c2ccc(OC)c(OC)c2)C(C)C)c1` (stereo not shown) [PhA57, devapamil, reference compound], under “Mycobacterium tuberculosis variant bovis BCG, BCG, read-out: MIC90 (Table S1), M. bovis BCG, broth dilution”, the MIC90 was found to be 180 µM (≈ 76.4 µg/mL).

`CC(C)C(C#N)(CCCN(C)CCc1ccc(Cl)c(Cl)c1)c1ccc(Cl)c(Cl)c1` (stereo not shown) [PhA66]: the MIC50 was 56 µM (≈ 26.4 µg/mL).

Take “carbonyl cyanide m-chlorophenyl hydrazine [CCCP, reference compound]”: the MIC90 was 50 µM and the “MIC90 BCG” value was 10 µg/mL.
